ChEMBL document CHEMBL2202998, “Investigations into specificity of azepinomycin for inhibition of guanase: discrimination between the natural heterocyclic inhibitor and its synthetic nucleoside analogues” (Bioorg Med Chem Lett, 2012)

Key:
Guanine deaminase = biological target: T1, Guanine deaminase (Homo sapiens, UniProt Q9Y2T3); assay: Inhibition of guanase
T1 sequence (Q9Y2T3 whole entry): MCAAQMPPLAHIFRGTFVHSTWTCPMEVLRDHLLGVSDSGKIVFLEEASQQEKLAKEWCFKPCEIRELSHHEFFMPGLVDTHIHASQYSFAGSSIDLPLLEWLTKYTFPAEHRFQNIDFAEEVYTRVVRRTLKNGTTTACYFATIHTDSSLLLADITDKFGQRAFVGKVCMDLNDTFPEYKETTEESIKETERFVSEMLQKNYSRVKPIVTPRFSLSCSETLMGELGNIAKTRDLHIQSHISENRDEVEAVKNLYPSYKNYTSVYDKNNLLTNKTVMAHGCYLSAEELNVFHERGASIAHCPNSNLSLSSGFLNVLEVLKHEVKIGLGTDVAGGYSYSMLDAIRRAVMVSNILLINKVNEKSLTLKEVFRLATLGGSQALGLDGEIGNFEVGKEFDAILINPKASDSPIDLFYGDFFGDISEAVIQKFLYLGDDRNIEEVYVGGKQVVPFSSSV

[1] = Competitive inhibition of rabbit liver guanase assessed as guanine hydrolysis rate by Lineweaver-Burk plot method; design: species or system Oryctolagus cuniculus

Compound	IC50 (Guanine deaminase)	Ki [1]
O=C1NC(O)CNc2nc[nH]c21 (racemic) [AZEPINOMYCIN]	5 µM	2.5 µM
O=C1N[C@H](O)CNc2c1ncn2[C@@H]1O[C@H](CO)[C@@H](O)[C@H]1O		129 µM
O=C1N[C@@H](O)CNc2c1ncn2[C@@H]1O[C@H](CO)[C@@H](O)[C@H]1O		119 µM
